Data reported in patent US7173021B2, “Synthesis of temozolomide esters as potent anticancer pro-drugs for topical and transdermal applications in treatments of cancers” (Tianjin North Pharm Sci-Tech Co., Ltd., priority 2004, dated 2007).
Values after ≈ are worked out from the molar mass of the structure shown. Marks after values point to notes of the source that are not given here.

Legend:
SHG-44 (human glioma) = test: In vitro tumour cell growth inhibition (MTT), SHG-44; format: cell-based; conditions: Homo sapiens, SHG-44, Table 2 experiment, 96 h
Procedure: (§1) Temozolomide (white powder), temozolomide acid (white powder) and temozolomide-8-carboxylate hexyl (white scale crystal) were made in house. For the estimation of in vitro tumour cell growth inhibition, MV3 (human melanoma), M14 (human melanoma), B16 and B16-BL6 (mouse melanoma), SHG-44, TJ899 and TJ905 (human glioma), MCF-7 (human breast), HCT-8 (human colon), A549 (human non small lung), Bel7402 (human hepatocellulor), and BGC-823 (human stomach) were used. All tumour cells were cultured in RPMI-1640 medium supplemented with 10% fetal bovine serum (FBS) at 37° C. in a humidified 5% CO2 incubator.
(§2) After being harvested from culture flasks, a cell suspension of 1×10^4/ml was made by using 1640 RPMI medium supplemented with 10% fetal bovine serum. 100 μl (contains 1000 tumour cells) of the cell suspension was seeded per well of 96-well flat-bottom Costar culture plates at 37° C. in a humidified 5% CO2 incubator for 24 hrs before introducing drugs. Each tested compounds was made for five different concentrations and 100 μl of the each concentration was introduced into parallel three wells; control wells were added with 100 μl of plain medium alone; fluorouracil (a chemotherapeutic antitumour drug) was used as the positive control. Cells were then incubated for 96 h. Proliferative response and cell death were determined using MTT (3-(4,5-dimethylthiazolyl)-2,5-diphenyl-tetrazolium bromide) assay.
(§3) MTT assay: Following incubation of cells with the tested compounds for 96 h, 100 μl of 0.4 mg/ml MTT in RPMI 1640 was added to each well and the plate was incubated at 37° C. for 4 h. The plate was then centrifuged and followed by removal of medium. 150 μl of DMSO was then added to dissolve formazan crystal. DMSO-added plates were placed on a plate shaker for 5 min and absorbance was measured spectrophotometrically at 540 nm (with reference wavelength at 450 nm) using a Benchmark microtiter plate reader (Bio-Rad 550, Bio-Rad Laboratories, CA, U.S.A.).
(§4) The IC50 was calculated from the curve of the tested compound concentrations against the inhibition rate of the tumour cells. Table 1 summarized the experiment results by using six human cancer cell lines, HCT-8 (colon carcinoma), A549 (non small lung carcinoma), MCF-7 (breast), Bel7402 (hepatocellulor carcinoma), BGC-823 (stomach adenocarcinoma), and MV3 (melanoma). Table 2 summarized the results from the experiment results by using two human melanoma cell lines, MV3 and M14, two mouse melanoma cell lines, B16 and B16-BL6, and three human glioma cell lines, TJ899, SHG-44 and TJ905.

MV3 melanoma (human) = test: In vivo antitumour activity, BALB/c nude mice inoculated with MV3 melanoma, topical application; conditions: 20 mg/mouse/day topical
Procedure: The temozolomide hexyl ester is chosen to conduct an in viva antitumour test. BALB/c nude mice were inoculated with MV3 melanoma (human). Once the tumour volume became 100–300 mm^3, the mice were divided into a controlled and a tested group of eight with a rational distribution of the mice according to the sizes of the tumours. The tested group was treated with 5% (W/V) free made dimethyl sulfoxide (DMSO) solution of the temozolomide hexyl ester twice a day (once on Saturday and Sunday) via repeated topical application (total dosage is 20 mg/mouse/day), while the controlled group was left to grow naturally. In a period of two-week experiment, the tumour growth in the mice was carefully recorded through body weighing and the measurement of the tumour sizes. After two weeks, the mice were scarified; tumour bulks were separated and weighed. The results of inhibition of tumour growth by the temozolomide hexyl ester are summarized in Table 5 and depicted in FIG. 10.
Preparation of 5% (W/V) DMSO solution of the temozolomide hexyl ester is carried out by weighing a actual amount of the temozolomide hexyl ester, then using DMSO to make the concentration to 50 mg/ml. After temozolomide hexyl ester is completely dissolved and a clear solution is obtained, the fresh made 5% (W/V) DMSO solution of the temozolomide hexyl ester is used in the experiments.
BALB/c nude mice were inoculated with MV3 melanoma (human). Once the tumour bulk became 100–300 mm^3, the mice were divided into a controlled and a tested group with a rational distribution of the mice according to the sizes of the tumours. Each group is consisted of 8 mice.
The tested group was treated with 5% (W/V) DMSO solution of the temozolomide hexyl ester twice a day (once on Saturday and Sunday) via repeated topical application on position of tumour and around of 2×2 cm^2 region (total dosage is 20 mg/mouse/day); while the controlled group was left free of treatment to allow the tumour to growth naturally.
The tumour volumes (TV) in the mice were measured for twice of a week, calculated using TV(mm^3)=(length×width^2)÷2, and carefully recorded and finally depicted in FIG. 10. After two weeks, the mice were scarified; tumour bulks were isolated, weighed and calculated the growth inhibition rate of MV3 melanoma (human) in BALB/c nude mice by the temozolomide hexyl ester. The antitumour activity of the temozolomide hexyl ester against MV3 melanoma (human) in BALB/c nude mice is evaluated by the relative tumour proliferation ratio (T/C %). T/C (%) is calculated by the following equation:
Where, RTV=Vt/Vo (Vo is the tumour volume (TV) at the time when the mice were divided into the tested group and the controlled group; Vt is the tumour volume (TV) were measured at each time interval FIG. 10). The criteria for effectiveness are (1) when T/C (%)>60, the compound is no effect; (2) when T/C (%)≦60 and statistically significant P<0.05, the compound is effect. In the case of the temozolomide hexyl ester, the T/C (%) in BALB/c nude mice bearing MV3 melanoma (human) is 33.7% (Table 3) and P<0.05.

TJ899 (human glioma) = test: In vitro tumour cell growth inhibition (MTT), TJ899; format: cell-based; conditions: Homo sapiens, Table 2 experiment, 96 h
Procedure: as §1, §2, §3, §4

[1] = tested on: A549 (human non small lung); test: In vitro tumour cell growth inhibition (MTT), A549; format: cell-based; conditions: Table 1 experiment, 96 h
Procedure: as §1, §2, §3
The IC50 was calculated from the curve of the tested compound concentrations against the inhibition rate of the tumour cells. […]

IC50 (SHG-44 (human glioma)): 9.46 µg/mL (≈ 33.9 µM) | IC50 (TJ899 (human glioma)): > 100 µg/mL | IC50 [1]: 26.6 µg/mL (≈ 95.4 µM)
Compound: CCCCCCOC(=O)c1ncn2c(=O)n(C)nnc12 [temozolomide hexyl ester, Hexyl 3,4-dihydro-3-methyl-4-oxoimidazo[5,1-d]-1,2,3,5-tetrazine-8-carboxylate]
Body weight, end (MV3 melanoma (human); after two weeks, mean ± SD): 22.9 ± 2.23 g | Tumour weight (MV3 melanoma (human); after two weeks, mean ± SD): 0.41 ± 0.318 g | Tumour volume, end (MV3 melanoma (human); after two weeks, mean ± SD, P < 0.05 vs control): 622 ± 545.1* mm^3 | Body weight, start (MV3 melanoma (human); start, mean ± SD): 24.0 ± 1.53 g | Tumour volume, start (MV3 melanoma (human); start, mean ± SD): 116 ± 27 mm^3 | RTV (MV3 melanoma (human); RTV=Vt/Vo, two weeks): 3.01 ± 1.95 | Inhibition (%) of tumour growth (MV3 melanoma (human); from tumour weight, two weeks): 80.5% | T/C (%) (MV3 melanoma (human); relative tumour proliferation ratio, two weeks): 33.7%
